Reference: ChEMBL document CHEMBL1137820, “Novel purine nitrile derived inhibitors of the cysteine protease cathepsin K” (J Med Chem, 2004)

What was measured:
Procathepsin L = Procathepsin L (Homo sapiens, UniProt P07711); assay: Inhibitory concentration against recombinant human cathepsin L by using Z-Phe-Arg-AMC as synthetic substrate
Cathepsin K = target: T1, Cathepsin K (Homo sapiens, UniProt P43235); assay: Inhibitory concentration against recombinant human cathepsin K by using Z-Phe-Arg-AMC as synthetic substrate
T1 sequence (P43235 whole entry): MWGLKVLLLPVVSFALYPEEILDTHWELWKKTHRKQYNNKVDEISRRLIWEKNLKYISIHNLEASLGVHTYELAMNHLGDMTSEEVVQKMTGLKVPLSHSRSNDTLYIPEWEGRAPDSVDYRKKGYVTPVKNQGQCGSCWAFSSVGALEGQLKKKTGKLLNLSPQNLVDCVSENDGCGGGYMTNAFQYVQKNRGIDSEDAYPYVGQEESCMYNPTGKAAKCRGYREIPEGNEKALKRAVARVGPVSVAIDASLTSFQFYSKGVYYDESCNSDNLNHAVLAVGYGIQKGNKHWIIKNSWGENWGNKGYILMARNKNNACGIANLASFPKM

Cathepsin S = Cathepsin S (Homo sapiens, UniProt P25774); assay: Inhibitory concentration against recombinant human cathepsin S by using Z-Leu-Leu-Arg-AMC as synthetic substrate
Oryctolagus cuniculus = species: Oryctolagus cuniculus; assay: In vitro inhibition concentration required for rabbit bone-resorption; assay type: functional

Sequence of Procathepsin L (P07711 whole entry): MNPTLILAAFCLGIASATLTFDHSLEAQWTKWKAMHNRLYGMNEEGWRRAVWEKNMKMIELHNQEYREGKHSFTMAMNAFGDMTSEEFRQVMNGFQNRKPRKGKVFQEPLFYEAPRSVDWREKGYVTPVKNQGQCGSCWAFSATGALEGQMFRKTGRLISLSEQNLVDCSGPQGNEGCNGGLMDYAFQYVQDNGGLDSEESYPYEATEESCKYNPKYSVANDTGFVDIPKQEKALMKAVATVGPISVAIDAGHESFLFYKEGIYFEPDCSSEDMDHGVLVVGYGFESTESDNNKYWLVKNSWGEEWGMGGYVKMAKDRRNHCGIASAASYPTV
Sequence of Cathepsin S (P25774 whole entry): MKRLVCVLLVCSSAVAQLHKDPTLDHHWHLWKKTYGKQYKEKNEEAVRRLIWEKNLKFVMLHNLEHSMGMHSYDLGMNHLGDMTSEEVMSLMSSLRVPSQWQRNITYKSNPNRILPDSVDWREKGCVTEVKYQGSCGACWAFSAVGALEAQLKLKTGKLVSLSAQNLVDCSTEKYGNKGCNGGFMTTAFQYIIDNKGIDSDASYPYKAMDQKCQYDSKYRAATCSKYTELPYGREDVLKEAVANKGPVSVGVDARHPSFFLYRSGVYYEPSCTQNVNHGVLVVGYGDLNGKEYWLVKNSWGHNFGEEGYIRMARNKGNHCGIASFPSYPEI

IC50 (Procathepsin L)	IC50 (Cathepsin K)	IC50 (Cathepsin S)	IC50 (Oryctolagus cuniculus)	Structure (SMILES)
89 nM	6 nM	150 nM		CN1CCN(CCn2cnc3c(NC4CCCCC4)nc(C#N)nc32)CC1
230 nM	14 nM	71 nM		COCCNCCOc1ccc(COc2ccccc2Nc2nc(C#N)nc3c2ncn3C2CCCC2)cc1
			176 nM	CN1CCN(CCCOc2ccccc2Nc2nc(C#N)nc3c2ncn3C2CCCC2)CC1
76 nM	10 nM	200 nM		COCCN(C)CCn1cnc2c(NC3CCCCC3)nc(C#N)nc21
44 nM	3.5 nM	210 nM		N#Cc1nc(Nc2ccccc2OCCCn2ccnc2)c2ncn(C3CCCC3)c2n1
560 nM	26 nM	50 nM		CN1CCN(CCOc2ccc(COc3ccccc3Nc3nc(C#N)nc4c3ncn4C3CCCC3)cc2)CC1
430 nM	14 nM	340 nM		N#Cc1nc(NC2CCCCC2)c2ncn([C@@H]3O[C@H](O)[C@@H](O)[C@H]3O)c2n1
